Reference: US5459142A, “Pyrazinyl and piperazinyl substituted pyrazine compounds” (Otsuka Pharmaceutical Co., Ltd., priority 1991, dated 1995)
Converted amounts (≈) assume the structure as drawn.

Key:
[1] = tested on: superoxide radicals (O2^-) released from peritoneal macrophage cells of guinea pig; experiment: Inhibitory effect against superoxide radicals released from peritoneal macrophage cells of guinea pig by stimulation (FMLP), cytochrome C reduction; assay type: cell-based; conditions: Cavia porcellus, Peritoneal macrophage cell; guinea pig peritoneal macrophages 2×10^6 cells/ml; FMLP 10^-7 M; 37° C.; OD550; read-out: IC50 (superoxide radical release)
Protocol: Inhibitory effect against superoxide radicals released from the peritoneal macrophage cells of guinea pig by stimulation:
Mineral oil (15 ml) was intraperitoneally administered to a guinea pig, then 96 hours after the administration, the peritoneal macrophage cells were sampled.
Superoxide radicals (O2^-) were determined by means of reduction of cytochrome C method according to the procedure described in an article written by T. Matsumoto, K. Takeshige and S. Minakami: Biochemical and Biophysical Research Communications, Vol. 88, No. 3, pp. 974-979, (1979).
The peritoneal macrophage cells were added to make the final concentration of 2×10^6 cells/ml into ml of 80 μM-cytochrome C solution, and the test compound of pyrazine derivative of the present invention was added thereto to make the test group sample. On the other hand, water was added in place of the test compound of the present invention to make the control group sample. Each of the test group sample and the control group sample was subjected to pre-incubation at 37° C. for 1 minute.
As to the stimulating agent for releasing superoxide radicals (O2^-), FMLP (formylmethionyl leucyl phenylalanine) was added to make the final concentration thereof to 10^-7 M, to each of the test group sample and the control group sample. Then both samples were subjected to additional reaction by incubation for 1 minute.
Difference of the optical absorbances measured at 550 nm (OD550) of both test group and control group samples were determined, and the 50% inhibitory concentration (IC50) was obtained by calculating as the ratio of OD550 of the test group sample to that of the control group sample.

[2] = tested on: releasing of lysosome from the neutrocytes of rat; experiment: Inhibitory effect against the releasing of lysosome from the neutrocytes of rat; assay type: cell-based; conditions: rat neutrocytes 5×10^5 cells/ml; 10^-6 M FMLP and 5 μg/ml cytochalasin B; OD540
Protocol: Inhibitory effect against the releasing of lysosome from the neutrocytes of rat
The neutrocytes of rat were sampled from the abdominal cavity of the rat 16 hours after the administration of 10 ml of 1%-casein solution (physiological saline solution).
Reaction of the releasing of lysosome from the neutrocytes of rat was determined by means of the method as described in an article written by T. Matsumoto, K. Takeshige and S. Minakami: Biochemical and Biophysical Research Communications, Vol. 88, No. 3, pp. 974-979, (1979).
The neutrocytes being sampled were added to Hank's solution so as to make the concentration thereof as 5×10^5 cells/ml, and the test compound of pyrazine derivative of the present invention was added thereto to make the test group sample. On the other hand, water as added in place of the pyrazine derivative of the present invention to make the control group sample. Each of the test group sample and the control group sample was subjected to pre-incubation at 37° C. for 1 minute.
As to the stimulating agents, 10^-6 M of FMLP (formylmethionyl leucyl phenylalanine) and 5 μg/ml of cytochalasin B were added to the solution. […] After the reaction, 1N-NaOH solution was added to the reaction mixture so as to make the pH value thereof to pH 8 to 9, and the optical absorbance of both test group samples and control group samples were determined at 540 nm (OD540). […]

[3] = tested on: releasing of hydrogen peroxide (H2O2) from the neutrocytes of rat abdominal cavity; experiment: Inhibitory effect against the releasing of hydrogen peroxide (H2O2) from the neutrocytes of rat abdominal cavity; assay type: cell-based, SD-strain rat; conditions: rat neutrocytes 10^6 cells/ml; FMLP 2×10^-6 M; 37° C., 1 hour; OD510
Protocol: Inhibitory effect against the releasing of hydrogen peroxide (H2 O2) from the neutrocytes of rat abdominal cavity
1) 1%-Casein solution was administered to the adbominal cavity of a SD-strain rat, then 16 hours after the administration, the neutrocytes were obtained by washing the abdominal cavity. Thus obtained neutrocytes were washed with Hank's solution.
2) The formulation of the reaction mixture(*) was as follows: […]
______________________________________
Rat neutrocytes 10^6 cells/ml
Text compound was added to the reaction mixture, then the whole mixture was incubated at 37° C. for 1 hour.
3) Next, the reacted mixture was subjected to centrifugal separation at 2,000 rpm for 10 minutes, then ml of the supernatant liquor was taken as a sample and microliters of 1N-NaOH solution was added thereto.
4) The optical absorbance at 510 nm (OD510) was determined by means of using a spectrophotometer. The 50% inhibitory concentration was obtained by calculating as the ratio of OD510 of the test group sample to that of the control group sample.

Row | SMILES | IC50 [1] [µg/mL] | IC50 [2] [µg/mL] | IC50 [3] [µg/mL]
1 | COc1c(C(=O)Nc2cccc(SC)c2)[nH]c(=O)c(CC(C)C)[n+]1[O-] [Example 3] | 20 (≈ 55 µM) |  | 
2 | COc1cccc(CNC(=O)c2[nH]c(=O)c(CC(C)C)[n+]([O-])c2OC)c1 [Test compound 1, 3-Isobutyl-5-methoxy-6-[N-(3-methoxybenzyl)]-carbamoyl-1,2-dihydropyrazin-2-one 4-oxide] | 30 (≈ 83 µM) |  | 
3 | COc1c(C(=O)Nc2ccc3c(c2)OCO3)[nH]c(=O)c(CC(C)C)[n+]1[O-] [Example 4] | 56 (≈ 155 µM) |  | 
4 | COc1c(C(=O)Nc2ccccc2-c2ccccc2)[nH]c(=O)c(CC(C)C)[n+]1[O-] [Example 6] | 3 (≈ 7.62 µM) | 20 | 
5 | COc1c(C(=O)Nc2nc3ccccc3s2)[nH]c(=O)c(CC(C)C)[n+]1[O-] [Example 7] | 18 (≈ 48.1 µM) | 16 | 
6 | COc1c(C(=O)Nc2cc(C(C)(C)C)c(O)c(C(C)(C)C)c2)[nH]c(=O)c(CC(C)C)[n+]1[O-] [Example 5] | 17 (≈ 38.2 µM) |  | 60 (≈ 135 µM)
7 | COc1cccc(NC(=O)c2[nH]c(=O)c(CC(C)C)[n+]([O-])c2OC)c1 [Example 2] | 40 (≈ 115 µM) |  | 
8 | COc1ccc2nc(NC(=O)c3[nH]c(=O)c(CC(C)C)[n+]([O-])c3OC)sc2c1 [Example 8] | 10 (≈ 24.7 µM) |  | 
